Tests used:
Type in all cases: functional
T47D = assay: Growth inhibition of human T47D cells assessed as cell growth at 30 uM incubated for 48 hrs by sulforhodamine B assay relative to control; details: read-out: Activity
OVCAR-3 [1] = assay: Growth inhibition of human OVCAR3 cells assessed as cell growth at 30 uM incubated for 48 hrs by sulforhodamine B assay relative to control; details: OVCAR-3, 48 h, read-out: Activity
MDA-MB-435 = assay: Growth inhibition of human MDA-MB-435 cells assessed as cell growth at 30 uM incubated for 48 hrs by sulforhodamine B assay relative to control; details: MDA-MB-435, 48 h, read-out: Activity
A549 [2] = assay: Growth inhibition of human A549/ATCC cells assessed as cell growth at 0.03 uM incubated for 48 hrs by sulforhodamine B assay relative to control; details: A549, 48 h, read-out: Activity
SF-539 [3] = assay: Growth inhibition of human SF539 cells assessed as cell growth at 0.03 uM incubated for 48 hrs by sulforhodamine B assay relative to control; details: SF-539, 48 h, read-out: Activity
OVCAR-3 [4] = assay: Growth inhibition of human OVCAR3 cells assessed as cell growth at 3 uM incubated for 48 hrs by sulforhodamine B assay relative to control; details: OVCAR-3, 48 h, read-out: Activity
ACHN [5] = assay: Growth inhibition of human ACHN cells assessed as cell growth at 0.03 uM incubated for 48 hrs by sulforhodamine B assay relative to control; details: read-out: Activity
NCI-H522 [6] = assay: Growth inhibition of human NCI-H522 cells assessed as cell growth at 3 uM incubated for 48 hrs by sulforhodamine B assay relative to control; details: NCI-H522, 48 h, read-out: Activity
HCT-15 = assay: Growth inhibition of human HCT15 cells assessed as cell growth at 0.03 uM incubated for 48 hrs by sulforhodamine B assay relative to control; details: HCT-15, 48 h, read-out: Activity
SNB-75 [7] = assay: Growth inhibition of human SNB75 cells assessed as cell growth at 0.03 uM incubated for 48 hrs by sulforhodamine B assay relative to control; details: SNB-75, 48 h, read-out: Activity
RPMI-8226 = assay: Growth inhibition of human RPMI8226 cells assessed as cell growth at 30 uM incubated for 48 hrs by sulforhodamine B assay relative to control; details: RPMI-8226, 48 h, read-out: Activity
Hs-578T = assay: Growth inhibition of human Hs 578T cells assessed as cell growth at 30 uM incubated for 48 hrs by sulforhodamine B assay relative to control; details: read-out: Activity
A549 [8] = assay: Growth inhibition of human A549/ATCC cells assessed as cell growth at 0.3 uM incubated for 48 hrs by sulforhodamine B assay relative to control; details: A549, 48 h, read-out: Activity
SN12C [9] = assay: Growth inhibition of human SN12C cells assessed as cell growth at 0.003 uM incubated for 48 hrs by sulforhodamine B assay relative to control; details: read-out: Activity
CCRF-CEM = assay: Growth inhibition of human CCRF-CEM cells assessed as cell growth at 0.3 uM incubated for 48 hrs by sulforhodamine B assay relative to control; details: read-out: Activity
BT-549 = assay: Growth inhibition of human BT549 cells assessed as cell growth at 3 uM incubated for 48 hrs by sulforhodamine B assay relative to control; details: BT-549, 48 h, read-out: Activity
K562 [10] = assay: Growth inhibition of human K562 cells assessed as cell growth at 0.3 uM incubated for 48 hrs by sulforhodamine B assay relative to control; details: K562, 48 h, read-out: Activity
K562 [11] = assay: Growth inhibition of human K562 cells assessed as cell growth at 30 uM incubated for 48 hrs by sulforhodamine B assay relative to control; details: K562, 48 h, read-out: Activity
HCT-116 [12] = assay: Growth inhibition of human HCT116 cells assessed as cell growth at 30 uM incubated for 48 hrs by sulforhodamine B assay relative to control; details: HCT-116, 48 h, read-out: Activity
SK-MEL-28 = assay: Growth inhibition of human SK-MEL-28 cells assessed as cell growth at 0.03 uM incubated for 48 hrs by sulforhodamine B assay relative to control; details: SK-MEL-28, 48 h, read-out: Activity
ACHN [13] = assay: Growth inhibition of human ACHN cells assessed as cell growth at 30 uM incubated for 48 hrs by sulforhodamine B assay relative to control; details: read-out: Activity
786-0 [14] = assay: Growth inhibition of human 786-0 cells assessed as cell growth at 0.1 uM incubated for 48 hrs by sulforhodamine B assay relative to control; details: 786-0, 48 h, read-out: Activity
SN12C [15] = assay: Growth inhibition of human SN12C cells assessed as cell growth at 0.01 uM incubated for 48 hrs by sulforhodamine B assay relative to control; details: read-out: Activity
SNB-75 [16] = assay: Growth inhibition of human SNB75 cells assessed as cell growth at 100 uM incubated for 48 hrs by sulforhodamine B assay relative to control; details: SNB-75, 48 h, read-out: Activity
DU-145 = assay: Growth inhibition of human DU145 cells assessed as cell growth at 0.1 uM incubated for 48 hrs by sulforhodamine B assay relative to control; details: DU-145, 48 h, read-out: Activity
IGROV-1 = assay: Growth inhibition of human IGROV1 cells assessed as cell growth at 1 uM incubated for 48 hrs by sulforhodamine B assay relative to control; details: IGROV-1, 48 h, read-out: Activity
EKVX = assay: Growth inhibition of human EKVX cells assessed as cell growth at 10 uM incubated for 48 hrs by sulforhodamine B assay relative to control; details: read-out: Activity
SF-539 [17] = assay: Growth inhibition of human SF539 cells assessed as cell growth at 0.01 uM incubated for 48 hrs by sulforhodamine B assay relative to control; details: SF-539, 48 h, read-out: Activity
A498 = assay: Growth inhibition of human A498 cells assessed as cell growth at 0.01 uM incubated for 48 hrs by sulforhodamine B assay relative to control; details: A498, 48 h, read-out: Activity
OVCAR-3 [18] = assay: Growth inhibition of human OVCAR3 cells assessed as cell growth at 100 uM incubated for 48 hrs by sulforhodamine B assay relative to control; details: OVCAR-3, 48 h, read-out: Activity
NCI-H522 [19] = assay: Growth inhibition of human NCI-H522 cells assessed as cell growth at 100 uM incubated for 48 hrs by sulforhodamine B assay relative to control; details: NCI-H522, 48 h, read-out: Activity
786-0 [20] = assay: Growth inhibition of human 786-0 cells assessed as cell growth at 10 uM incubated for 48 hrs by sulforhodamine B assay relative to control; details: 786-0, 48 h, read-out: Activity
U-251 = assay: Growth inhibition of human U251 cells assessed as cell growth at 0.1 uM incubated for 48 hrs by sulforhodamine B assay relative to control; details: U-251, 48 h, read-out: Activity
TK-10 = assay: Growth inhibition of human TK10 cells assessed as cell growth at 100 uM incubated for 48 hrs by sulforhodamine B assay relative to control; details: TK-10, 48 h, read-out: Activity
HOP-92 = assay: Growth inhibition of human HOP92 cells assessed as cell growth at 1 uM incubated for 48 hrs by sulforhodamine B assay relative to control; details: HOP-92, 48 h, read-out: Activity
HCT-116 [21] = assay: Growth inhibition of human HCT116 cells assessed as cell growth at 1 uM incubated for 48 hrs by sulforhodamine B assay relative to control; details: HCT-116, 48 h, read-out: Activity

Work on `COc1cc2cc(Oc3ccc(NC(=O)Nc4ccc(Cl)c(C(F)(F)F)c4)cc3)c(C)nc2cc1OC` yielded a growth at 30 µM (T47D) of -30%, a growth at 30 µM (OVCAR-3 [1]) of -87% and a growth at 30 µM (MDA-MB-435) of -46%. It also gave a growth at 0.03 µM (A549 [2]) of 100%, a growth at 0.03 µM (SF-539 [3]) of 100% and a growth at 3 µM (OVCAR-3 [4]) of 14%. For the same molecule, the growth at 0.03 µM (ACHN [5]) was 97%, the growth at 3 µM (NCI-H522 [6]) was -8% and the growth at 0.03 µM (HCT-15) was 93%. For the same molecule, the growth at 0.03 µM (SNB-75 [7]) was 84%, the growth at 30 µM (RPMI-8226) was -47% and the growth at 30 µM (Hs-578T) was -53%. It also gave a growth at 0.3 µM (A549 [8]) of 89%, a growth at 0.003 µM (SN12C [9]) of 98% and a growth at 0.3 µM (CCRF-CEM) of 101%. It also gave a growth at 3 µM (BT-549) of 12%, a growth at 0.3 µM (K562 [10]) of 93% and a growth at 30 µM (K562 [11]) of -60%. It also gave a growth at 30 µM (HCT-116 [12]) of -83%, a growth at 0.03 µM (SK-MEL-28) of 98% and a growth at 30 µM (ACHN [13]) of -85%.
Work on `COc1cc2cc(Oc3ccc(NC(=O)Nc4ccc(Cl)c(Cl)c4)cc3)c(C)nc2cc1OC` yielded a growth at 0.1 µM (786-0 [14]) of 95%, a growth at 0.01 µM (SN12C [15]) of 93% and a growth at 100 µM (SNB-75 [16]) of -59%. It also gave a growth at 0.1 µM (DU-145) of 110%, a growth at 1 µM (IGROV-1) of 110% and a growth at 10 µM (EKVX) of -2%. It also gave a growth at 0.01 µM (SF-539 [17]) of 101%, a growth at 0.01 µM (A498) of 82% and a growth at 100 µM (OVCAR-3 [18]) of -98%. It also gave a growth at 100 µM (NCI-H522 [19]) of -63%, a growth at 10 µM (786-0 [20]) of 22% and a growth at 0.1 µM (U-251) of 93%. The growth at 100 µM (TK-10) was -76%, the growth at 1 µM (HOP-92) was 91% and the growth at 1 µM (HCT-116 [21]) was 76%.
With `COc1cc2cc(Oc3ccc(NC(=O)Nc4cc(C(F)(F)F)cc(C(F)(F)F)c4)cc3)c(C)nc2cc1OC` the growth at 0.1 µM (786-0 [14]) was 92%, the growth at 0.01 µM (SN12C [15]) was 96% and the growth at 100 µM (SNB-75 [16]) was -44%. For the same molecule, the growth at 0.1 µM (DU-145) was 100%, the growth at 1 µM (IGROV-1) was 31% and the growth at 10 µM (EKVX) was -55%. For the same molecule, the growth at 0.01 µM (SF-539 [17]) was 92%, the growth at 0.01 µM (A498) was 97% and the growth at 100 µM (OVCAR-3 [18]) was -89%. For the same molecule, the growth at 100 µM (NCI-H522 [19]) was -79%, the growth at 10 µM (786-0 [20]) was -90% and the growth at 0.1 µM (U-251) was 100%. It also gave a growth at 100 µM (TK-10) of -95%, a growth at 1 µM (HOP-92) of 54% and a growth at 1 µM (HCT-116 [21]) of 33%.
Work on `Cc1nc2cc(O)c(O)cc2cc1Oc1ccc(NC(=O)Nc2ccc(Cl)c(Cl)c2)cc1` yielded a growth at 30 µM (T47D) of 10%, a growth at 30 µM (OVCAR-3 [1]) of -29% and a growth at 30 µM (MDA-MB-435) of 7%. It also gave a growth at 0.03 µM (A549 [2]) of 98%, a growth at 0.03 µM (SF-539 [3]) of 105% and a growth at 3 µM (OVCAR-3 [4]) of 107%. The growth at 0.03 µM (ACHN [5]) was 107%, the growth at 3 µM (NCI-H522 [6]) was 65% and the growth at 0.03 µM (HCT-15) was 98%. It also gave a growth at 0.03 µM (SNB-75 [7]) of 81%, a growth at 30 µM (RPMI-8226) of -22% and a growth at 30 µM (Hs-578T) of 16%. It also gave a growth at 0.3 µM (A549 [8]) of 96%, a growth at 0.003 µM (SN12C [9]) of 100% and a growth at 0.3 µM (CCRF-CEM) of 98%. For the same molecule, the growth at 3 µM (BT-549) was 78%, the growth at 0.3 µM (K562 [10]) was 123% and the growth at 30 µM (K562 [11]) was -3%. For the same molecule, the growth at 30 µM (HCT-116 [12]) was -26%, the growth at 0.03 µM (SK-MEL-28) was 87% and the growth at 30 µM (ACHN [13]) was -18%.

Reference: ChEMBL document CHEMBL3994622, “Design and synthesis of new RAF kinase-inhibiting antiproliferative quinoline derivatives. Part 2: Diarylurea derivatives” (Eur J Med Chem, 2017)
